Laboratory results published in patent EP0643053A1, “Process for the manufacture of phenoxyphenoxyalkyl derivatives” (CIBA-GEIGY AG, priority 1993, dated 1995).

Tests used:
Type in all cases: in vivo
Nilaparvata lugens [1] = assay: Activity against Nilaparvata lugens on sprayed rice plants; conditions: 504 h, 400 ppm of active ingredient, larvae in the 2nd and 3rd stages, after 21 days, isomer ratios A, B and C used, read-out: percentage reduction in population (% activity)
Source text: The active ingredient is used, in each case, in three different isomer ratios A, B and C: A = 37.8 % of 2R,4S-isomer IIIa, 37.8% of 2S,4R-isomer IIIb, 12.2% of 2R,4R-isomer IIIc and 12.2% of 2S,4S-isomer IIId; B = 40.2% of 2R,4S-isomer IIIa, 40.2% of 2S,4R-isomer IIIb, 9.8% of 2R,4R-isomer IIIc and 9.8% of 2S,4S-isomer IIId; and C = 36.7% of 2R,4S-isomer IIIa, 36.7% of 2S,4R-isomer IIIb, 13.3% of 2R,4R-isomer IIIc and 13.3% of 2S,4S-isomer IIId. Example B5: Activity against Nilaparvata lugens Rice plants are sprayed with an aqueous emulsion spray mixture comprising 400 ppm of active ingredient. After the spray coating has dried on, the plants are populated with plant hopper larvae in the 2nd and 3rd stages. The test is evaluated after 21 days. The percentage reduction in population (% activity) is determined by comparing the number of surviving plant hoppers on the treated and untreated plants. In this test, the compound of the formula III has an activity of over 80%.

[2] = system: Aonidiella aurantii crawlers; assay: Activity against Aonidiella aurantii on Citrus trifoliata cuttings (spray); conditions: 50 ppm of active ingredient; Citrus trifoliata cuttings sprayed to drip point; after 10 to 12 weeks; isomer ratios A, B and C used
Source text: (§1) The active ingredient is used, in each case, in three different isomer ratios A, B and C: A = 37.8 % of 2R,4S-isomer IIIa, 37.8% of 2S,4R-isomer IIIb, 12.2% of 2R,4R-isomer IIIc and 12.2% of 2S,4S-isomer IIId; B = 40.2% of 2R,4S-isomer IIIa, 40.2% of 2S,4R-isomer IIIb, 9.8% of 2R,4R-isomer IIIc and 9.8% of 2S,4S-isomer IIId; and C = 36.7% of 2R,4S-isomer IIIa, 36.7% of 2S,4R-isomer IIIb, 13.3% of 2R,4R-isomer IIIc and 13.3% of 2S,4S-isomer IIId. Example B3: Activity against Aonidiella aurantii Citrus trifoliata cuttings are populated with Aonidiella aurantii crawlers. After about 2 weeks, the cuttings are sprayed to drip point with an aqueous emulsion spray mixture comprising 50 ppm of active ingredient. To evaluate the experiment after 10 to 12 weeks, the survival rate of the crawlers of the first subsequent generation of the treated population is compared with that of untreated control batches. In this test, the compound of the formula III has an activity of over 80%.

Nilaparvata lugens [3] = assay: Activity against Nilaparvata lugens (systemic), rice plants in pots; conditions: 144 h, 10 ppm of active ingredient in aqueous emulsion solution, larvae in the 2nd and 3rd stages, after 6 days, isomer ratios A, B and C used, read-out: percentage reduction in population (% activity)
Source text: The active ingredient is used, in each case, in three different isomer ratios A, B and C: A = 37.8 % of 2R,4S-isomer IIIa, 37.8% of 2S,4R-isomer IIIb, 12.2% of 2R,4R-isomer IIIc and 12.2% of 2S,4S-isomer IIId; B = 40.2% of 2R,4S-isomer IIIa, 40.2% of 2S,4R-isomer IIIb, 9.8% of 2R,4R-isomer IIIc and 9.8% of 2S,4S-isomer IIId; and C = 36.7% of 2R,4S-isomer IIIa, 36.7% of 2S,4R-isomer IIIb, 13.3% of 2R,4R-isomer IIIc and 13.3% of 2S,4S-isomer IIId. Example B6: Activity against Nilaparvata lugens (systemic) Pots containing rice plants are placed into an aqueous emulsion solution comprising 10 ppm of active ingredient. The plants are subsequently populated with larvae in the 2nd and 3rd stages. The test is evaluated after 6 days. The percentage reduction in population (% activity) is determined by comparing the number of plant hoppers on the treated and untreated plants. In this test, the compound of the formula III has an activity of over 80%.

Cydia pomonella eggs = assay: Activity against Cydia pomonella (ovicidal), egg immersion test; conditions: 144 h, 400 ppm of active ingredient in acetone/water, eggs on filter paper immersed, after 6 days, vs untreated control, isomer ratios A, B and C used, read-out: activity (% reduction in hatching rate)
Source text: (§2) The active ingredient is used, in each case, in three different isomer ratios A, B and C: A = 37.8 % of 2R,4S-isomer IIIa, 37.8% of 2S,4R-isomer IIIb, 12.2% of 2R,4R-isomer IIIc and 12.2% of 2S,4S-isomer IIId; B = 40.2% of 2R,4S-isomer IIIa, 40.2% of 2S,4R-isomer IIIb, 9.8% of 2R,4R-isomer IIIc and 9.8% of 2S,4S-isomer IIId; and C = 36.7% of 2R,4S-isomer IIIa, 36.7% of 2S,4R-isomer IIIb, 13.3% of 2R,4R-isomer IIIc and 13.3% of 2S,4S-isomer IIId. Example B4: Activity against Cydia pomonella (ovicidal) Cydia pomonella eggs which have been deposited on filter paper are briefly immersed into a test solution of 400 ppm of active ingredient in acetone/water. After the test solution has dried on, the eggs are incubated in Petri dishes. After 6 days, the percentage hatching rate of the eggs is evaluated by comparison with untreated control batches (% reduction in hatching rate). In this test, the compound of the formula III has an activity of over 80%.

[4] = system: Adoxophyes reticulana eggs; assay: Activity against Adoxophyes reticulana (ovicidal), egg immersion test; conditions: 144 h; 400 ppm of active ingredient in acetone/water; eggs on filter paper immersed; after 6 days; vs untreated control; isomer ratios A, B and C used; read-out: activity (% reduction in hatching rate)
Source text: as §2, with “B1:” for “B4:”, “Adoxophyes reticulana” for “Cydia pomonella”

[5] = system: Aonidiella aurantii crawlers; assay: Activity against Aonidiella aurantii on potato tubers (immersion); conditions: 400 ppm of active ingredient; potato tubers immersed in aqueous emulsion or suspension spray mixture; after 10 to 12 weeks; isomer ratios A, B and C used
Source text: as §1, with “B2:” for “B3:”, “Potato tubers” for “Citrus trifoliata cuttings”, “potatoes” for “cuttings”, “immersed into” for “sprayed to drip point with”, “or suspension spray mixture which comprises 400” for “comprising 50”, “ingredient. After the tubers have dried, they are incubated in a plastic container.” for “ingredient.”

Question: With `CCC1OCC(COc2ccc(Oc3ccccc3)cc2)O1` (racemic) [compound of the formula III, 2-ethyl-4-(4-phenoxyphenoxymethyl)-1,3-dioxolane] as the compound, how does the activity at 400 ppm (Nilaparvata lugens [1]) read?
Answer: > 80%

Question: What about the “activity (survival rate of the crawlers of the first subsequent generation compared with untreated control)” value [2] of the same compound?
Answer: over 80%

Question: And the activity at 10 ppm (Nilaparvata lugens [3])?
Answer: > 80%

Question: What about the activity at 400 ppm (Cydia pomonella eggs) of the same compound?
Answer: > 80%

Question: And the activity at 400 ppm [4]?
Answer: > 80%

Question: And the “activity (survival rate of the crawlers of the first subsequent generation compared with untreated control)” value [5]?
Answer: over 80%
